From patent US12594292B2, “Antiviral prodrugs, intermediate-and long-acting formulations and methods” (priority 2022, dated 2026)
Read-outs that look alike come from different tables or passages of the source.

Assays:
[1] = tested on: SARS-CoV-2 isolate USA-WA1/2020; experiment: SARS-CoV-2 infection in Huh7.5 cells, qRT-PCR (Example 7); assay type: cell-based
[2] = tested on: SARS-CoV-2 isolate USA-WA1/2020; experiment: SARS-CoV-2 infection in Vero E6 cells, qRT-PCR of Spike RNA (Example 3); assay type: cell-based
Huh7.5 cells [3] = experiment: Cytotoxicity in Huh7.5 cells, nuclei count (Example 6); assay type: cell-based, human
[4] = tested on: SARS-CoV-2 isolate USA-WA1/2020; experiment: SARS-CoV-2 infection in PSC-human lung cells, qRT-PCR (Example 7); assay type: cell-based; details: PSC-human lung cells, MOI 0.01, 48 hours
HCoV-229E = assay type: cell-based, human Coronavirus 229E
[5] = tested on: SARS-CoV-2 isolate USA-WA1/2020; experiment: SARS-CoV-2 infection in Vero E6 cells, qRT-PCR (Example 7); assay type: cell-based
[6] = tested on: USA WA-01 strain of SARS CoV-2; experiment: Anti-coronavirus activity in Vero E6 cells, qPCR of spike RNA (Example 2); assay type: cell-based
Procedure: (§1) Ten thousand Vero E6 cells were seeded in 100 microliters of culture medium in 96 well plates. The following day serial two-fold dilutions of antiviral compounds or the DMSO-containing vehicle were added to each well. The USA WA-01 strain of SARS CoV-2 was added to each well at a multiplicity of infection of 0.1 thirty minutes later. Cells were incubated for 48 hours, washed twice in PBS and lysed with TRIzol. RNA was extracted using Directzol micro RNA columns. RNA was made into cDNA and assayed for the SARS CoV-2 spike protein and for a housekeeping gene (RPLPO) RNA by qPCR. Data represents the average of duplicate wells. Cellular cytotoxicity was also measured in VERO E6 cells. […] Cytotoxicity (CC50) was assessed using a commercially available MTT assay.

VERO E6 cells [7] = experiment: Cell viability assay CellTiter-Glo, Vero E6 cells (Example 7)
VERO E6 cells [8] = experiment: CellTiter-Glo luminescent cell viability assay, Vero E6 (Example 3); assay type: cell-based
Procedure: CellTiter-glo luminescent cell viability assay: Approximately 10^4 Vero E6 cells per well were seeded in opaque walled 96 well cell culture plates and incubated overnight. Compounds or controls were added at the indicated concentrations. […] Viability was calculated compared to untreated controls and CC50 values were calculated using Prism 8.
Determination of Cytotoxicity: The 50% cytotoxic concentrations (CC50) were determined with Cell Titer Glo (Cat. #G7570, Promega, Madison, WI) according to the manufacturer's instructions. The calculated CC50 values are shown in the foregoing table.
Relative viability was measured by CellTiter-Glo luminescent cell viability assay, as depicted at FIG. 2.

VERO E6 cells [9] = experiment: Cellular cytotoxicity in Vero E6 cells, MTT assay (Example 2); assay type: cell-based
Procedure: as §1

Huh7.5 cells [10] = experiment: Cell viability assay CellTiter-Glo, Huh7.5 cells (Example 7)
TMPRSS2-Vero cells = experiment: Cytotoxicity in TMPRSS2-Vero cells, nuclei count (Example 6); assay type: cell-based; details: TMPRSS2-Vero cells; read-out: CC50
SARS-CoV-2 [11] = experiment: SARS-CoV-2 infection assay in Huh7.5 cells, nucleocapsid immunofluorescence (Example 6); assay type: cell-based; details: MOI 0.1, 48 hours
SRV A2 strain of RSV = experiment: RSV infection in Hep-2 cells, CPE reduction; assay type: cell-based, respiratory syncytial virus; details: RSV A2 in Hep-2 cells, 72 to 96 hours
Procedure: Methods: The SRV A2 strain of RSV was obtained from the ATCC. Ten thousand Hep-2 cells were seeded into each well of a 96-well plate in EMEM with 10% fetal bovine serum and 1% penicillin and streptomycin. Each well was inoculated with 100 TCID50 of virus. Two hours later wells were washed once with medium and serial four-fold dilutions of candidate antiviral drugs were added.

Calu-3 cells = experiment: Cytotoxicity in Calu-3 cells, nuclei count or CellTiter-Glo (Example 6); details: for select compounds up to 100 μM by CellTiter-Glo
Procedure: After which an equal volume of CellTiter-Glo reagent (Cat. #G7570, Promega, Madison, WI) was added, mixed and luminescence recorded on a Veritas Microplate Luminometer (Turner BioSystems) according to manufacturer recommendations.

Hep-2 cells = experiment: Cell viability assay for the RSV table (CC50); assay type: cell-based; details: Hep-2 cells; read-out: CC50
SARS-CoV-2 [12] = experiment: SARS-CoV-2 infection assay in TMPRSS2-Vero cells, nucleocapsid immunofluorescence (Example 6); assay type: cell-based; details: MOI 0.01, 32 hours
SARS-CoV-2 [13] = experiment: SARS-CoV-2 infection assay in Calu-3 cells, nucleocapsid immunofluorescence (Example 6); details: MOI 0.01, 44 hour
[14] = Cytotoxicity (CC50) in human PBMCs; assay type: cell-based; details: human PBMCs
HIV-1 [15] = experiment: microbe, parasite or virus in culture; details: Human immunodeficiency virus 1, PBMC
Procedure: (§2) Antiviral activities were determined in HIV infected human PBMCs.

HIV-1 [16] = details: for EC50: HIV infected human PBMCs
Procedure: as §2

human PBMCs = experiment: Cytotoxicity (CC50) in human PBMCs; assay type: cell-based; details: variation of the diester substituent of ODE-TFV; read-out: CC50
HFF cells = experiment: Persistence of TFVpp in HFF cells after a 3 day exposure; details: HFF cells, 1 micromolar drug for 3 days
Source text: HFF cells were exposed to 1 micromolar drug for 3 days. At days 0, 1, 2, 4, 7, 14, 21, and 28, cells were trypsinized, counted, and processed for LC/MS measurement of TFVpp. Data were expressed at ftg/cell. nm=not meaningful; ftg—gemtogram.

[17] = Huh7.5 cells, MOI 0.01, 48 hours, qRT-PCR (Example 7)
[18] = Vero E6 cells, MOI 0.01, 48 hours, mean±SD
[19] = Vero E6 cells, MOI 0.01, 48 hours
[20] = Vero E6 cells, MOI 0.1, 48 hours
[21] = variation of the diester substituent of ODE-TFV

Work on `CCCCCCCCCCCCCCCCOCCCOP(=O)(O)OC[C@H]1O[C@@](C#N)(c2ccc3c(N)ncnn23)[C@H](O)[C@@H]1O` [Compound 4b, 3-(Hexadecyloxy)propyl-phospho-RVn] yielded a Selectivity ([1]; CC50/EC50, Huh7.5 cells) greater than 526, an EC50 [1, 17] of 190 nM and an EC90 [1, 17] of 400 nM. For the same compound, the EC50 ([1]; Huh7.5 cells, MOI 0.01, 48 hours, qRT-PCR (Example 7), listed as HDP-P-RVn) was 190 nM, the Selectivity ([2]; CC50/EC50, Vero E6) was 52 and the EC50 [2, 18] was 960 ± 170 nM. The EC90 [2, 18] was 2100 ± 780 nM, the CC50 (MRC-5 cells) was 32100 ± 17900 nM and the CC50 (Huh7.5 cells [3]) was greater than 20000 nM. For the same compound, the EC50 [4] was 350 nM, the EC90 [4] was 940 nM and the EC50 (HCoV-229E) was 3020 ± 360 nM. For the same compound, the EC90 (HCoV-229E) was 6600 ± 1140 nM, the Selectivity ([5]; CC50/EC50, Vero E6 cells) was greater than 158 and the EC50 [5, 19] was 630 nM. For the same compound, the EC90 [5, 19] was 730 nM, the “Selectivity Index” value ([6]; CC50/EC50, Vero E6) was 25.0 and the “times more active than remdesivir” value ([6]; USA WA-1 strain, Vero E6 cells) was 3.3. The EC50 [6, 20] was 840 nM, the EC90 [6, 20] was 1580 nM and the CC50 (VERO E6 cells [7]) was greater than 100000 nM. For the same compound, the CC50 (VERO E6 cells [8]) was 51000 nM, the CC50 (VERO E6 cells [9]) was 21000 nM and the CC50 (Huh7.5 cells [10]) was greater than 100000 nM.
With `CCCCCCCCCCCCCCCCOC[C@H](COP(=O)(O)OC[C@H]1O[C@@](C#N)(c2ccc3c(N)ncnn23)[C@H](O)[C@@H]1O)OCc1ccc(OC)c(F)c1` [Compound 15c, 1-O-Hexadecyl-2-O-(3-fluoro, 4-methoxybenzyl)-sn-glyceryl-phospho-RVn] the CC50 (MRC-5 cells) was greater than 50000 nM, the CC50 (Huh7.5 cells [3]; Huh7.5 cells, read-out: CC50) was greater than 20000 nM and the EC50 (HCoV-229E) was 360 ± 54 nM. For the same compound, the EC90 (HCoV-229E) was 1120 ± 100 nM, the CC50 (TMPRSS2-Vero cells) was greater than 20000 nM and the EC50 (SARS-CoV-2 [11]) was 49 nM. The EC90 (SARS-CoV-2 [11]) was 113 nM, the EC50 (SRV A2 strain of RSV) was 34 nM and the EC90 (SRV A2 strain of RSV) was 68 nM. It also gave a CC50 (Calu-3 cells) of 75600 ± 3960 nM, a CC50 (Hep-2 cells) of 20600 nM and an EC50 (SARS-CoV-2 [12]) of 397 nM. The EC90 (SARS-CoV-2 [12]) was 869 nM, the EC50 (SARS-CoV-2 [13]) was 51 ± 6 nM and the EC90 (SARS-CoV-2 [13]) was 221 ± 58 nM.
Compound `CCCCCCCCCCCCCCCCCCOC[C@H](COP(=O)(O)OC[C@H]1O[C@@](C#N)(c2ccc3c(N)ncnn23)[C@H](O)[C@@H]1O)OCc1ccc(OC)c(F)c1` [Compound 15j, 1-O-Octadecyl-2-O-(3-fluoro-4-methoxy-benzyl)-sn-glyceryl-phospho-RVn] has a CC50 (MRC-5 cells) greater than 50000 nM, a CC50 (Huh7.5 cells [3]; Huh7.5 cells, read-out: CC50) greater than 20000 nM and an EC50 (HCoV-229E) of 74 ± 10 nM. For the same compound, the EC90 (HCoV-229E) was 170 ± 14 nM, the CC50 (TMPRSS2-Vero cells) was greater than 20000 nM and the EC50 (SARS-CoV-2 [11]) was 56 nM. For the same compound, the EC90 (SARS-CoV-2 [11]) was 222 nM, the EC50 (SRV A2 strain of RSV) was 10 nM and the EC90 (SRV A2 strain of RSV) was 19 nM. The CC50 (Calu-3 cells) was 50600 ± 5420 nM, the CC50 (Hep-2 cells) was 9600 nM and the EC50 (SARS-CoV-2 [12]) was 174 nM. The EC90 (SARS-CoV-2 [12]) was 341 nM.
`CCCCCCCC/C=C\CCCCCCCCOC[C@H](COP(=O)(O)OC[C@H]1O[C@@](C#N)(c2ccc3c(N)ncnn23)[C@H](O)[C@@H]1O)OCc1ccc(OC)c(F)c1` [Compound 15m, 1-O-Oleyl-2-O-(3-fluoro, 4-methoxybenzyl)-sn-glyceryl-phospho-RVn] showed a CC50 (MRC-5 cells) greater than 50000 nM, a CC50 (Huh7.5 cells [3]; Huh7.5 cells, read-out: CC50) greater than 20000 nM and an EC50 (HCoV-229E) of 60 ± 14 nM. For the same compound, the EC90 (HCoV-229E) was 110 ± 20 nM, the CC50 (TMPRSS2-Vero cells) was greater than 20000 nM and the EC50 (SARS-CoV-2 [11]) was 54 nM. For the same compound, the EC90 (SARS-CoV-2 [11]) was 102 nM, the EC50 (SRV A2 strain of RSV) was 5 nM and the EC90 (SRV A2 strain of RSV) was 9.4 nM. It also gave a CC50 (Calu-3 cells) of 58500 ± 6280 nM, a CC50 (Hep-2 cells) of 12500 nM and an EC50 (SARS-CoV-2 [12]) of 296 nM. The EC90 (SARS-CoV-2 [12]) was 524 nM.
For `CCCCCCCCCCCCCCCCCCOCCOP(=O)(OCc1ccccc1)OC[C@H]1O[C@@H](n2cc(F)c(N)nc2=O)CS1` (stereo partly shown) [ODE-Bn-P-Emtricitabine, Octadecyloxyethyl benzyl-phospho-emtricitabine], the CC50 [14] was 54700 ± 45300 nM, the EC50 (HIV-1 [15]) was 18.3 ± 8.7 nM and the Selectivity Index (HIV-1 [16]; CC50/EC50) was 2989.
`CCCCCCCCCCCCCCCCCCOCCOP(=O)(CO[C@H](C)Cn1cnc2c(N)ncnc21)OCc1ccccc1` (stereo partly shown) [ODE-Bn-TFV, Octadecyloxyethyl benzyl tenofovir] gave a CC50 [14] of 8720 nM, an EC50 (HIV-1 [15]) of 1.7 ± 1.5 nM and a Selectivity Index (HIV-1 [16]; CC50/EC50) of 5130.
With `CCCCCCCCCCCCCCCCCCOCCOP(=O)(CO[C@H](C)Cn1cnc2c(N)ncnc21)OC` (stereo partly shown) [ODE-Me-TFV] the CC50 (human PBMCs) was 2980 nM, the “Selectivity Index” value (HIV-1 [16]; [21]) was 677 and the EC50 (HIV-1 [16]; [21]) was 5.2 nM. For the same compound, the “Cmax of TFVpp” value (HFF cells) was 9.3 ftg/cell, the “T1/2 of TFVpp” value (HFF cells) was 2.0 and the “T1/10 of TFVpp” value (HFF cells) was 11.3. The “Tmax of TFVpp” value (HFF cells) was 0 h.
In the case of `CCCCCCCCCCCCCCCCCCOCCOP(=O)(O)OC[C@H]1O[C@@H](n2cc(F)c(N)nc2=O)CS1` [ODE-P-Emtricitabine, Octadecyloxyethyl-phospho-emtricitabine], the CC50 [14] is reported as 35600 ± 12900 nM, the EC50 (HIV-1 [15]) is reported as 9.6 ± 3.1 nM and the Selectivity Index (HIV-1 [16]; CC50/EC50) is reported as 3708.
For `CCCCCCCCCCCCCCCCCCOCCOP(=O)(CO[C@H](C)Cn1cnc2c(N)ncnc21)Oc1ccccc1` (stereo partly shown) [ODE-Ph-TFV], the CC50 (human PBMCs) was 3930 nM, the “Selectivity Index” value (HIV-1 [16]; [21]) was 1640 and the EC50 (HIV-1 [16]; [21]) was 2.4 nM. The “Cmax of TFVpp” value (HFF cells) was 8.1 ftg/cell, the “T1/2 of TFVpp” value (HFF cells) was 3.0 and the “T1/10 of TFVpp” value (HFF cells) was 15.1. For the same compound, the “Tmax of TFVpp” value (HFF cells) was 24 h.
For `CCCCCCCC/C=C\CCCCCCCCOCCOP(=O)(O)CO[C@H](C)Cn1cnc2c(N)nc(N)nc21` [OLE-PMPDAP, Oleyloxyethyl 9-(R)-[(2-phosphonomethoxy)propyl]-2,6-diaminopurine], the CC50 [14] was 15000 ± 12300 nM, the EC50 (HIV-1 [15]) was 0.1 ± 0.03 nM and the Selectivity Index (HIV-1 [16]; CC50/EC50) was 150,000.
